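Compound exposure: 48 hours, 5 concentrations, 96-well plates. GI50 is the concentration that inhibits growth by half.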 Calls of active or inactive are those of the source. Rule as the data show it: active = GI50 up to about 1.1 µM and inactive = higher.
Experiments:
Assay in all cases: NCI tumour cell line growth inhibition, 48 h
[1] = test system: 786-0
[2] = test system: CAKI-1
[3] = test system: DU-145
[4] = test system: EKVX
[5] = test system: HL-60
[6] = test system: HOP-92
[7] = test system: KM12
[8] = test system: M14
[9] = test system: MCF7
[10] = test system: MDA-MB-435
[11] = test system: NCI-H23
[12] = test system: SF-268
[13] = test system: SF-295
[14] = test system: SK-MEL-5
[15] = test system: SNB-19
[16] = test system: SNB-75
[17] = test system: SR
[18] = test system: TK-10
[19] = test system: UACC-257
[20] = test system: UO-31

Cc1cc2c(cc1-c1cc3c(cc1C)C(C(C)C)=C(O)C(=O)/C3=C\NCC1CCCN3CCCCC13)/C(=C/NCC1CCCN3CCCCC13)C(=O)C(O)=C2C(C)C (centres undefined)
GI50 [1]: 3.02 µM (inactive)
GI50 [2]: 3.81 µM (inactive)
GI50 [3]: 11 µM (inactive)
GI50 [4]: 7.98 µM (inactive)
GI50 [5]: 2.97 µM (inactive)
GI50 [6]: 15.8 µM (inactive)
GI50 [7]: 5.15 µM (inactive)
GI50 [8]: 5.02 µM (inactive)
GI50 [9]: 12.4 µM (inactive)
GI50 [10]: 7.62 µM (inactive)
GI50 [11]: 6.27 µM (inactive)
GI50 [12]: 3.85 µM (inactive)
GI50 [13]: 6.27 µM (inactive)
GI50 [14]: 6.75 µM (inactive)
GI50 [15]: 7.98 µM (inactive)
GI50 [16]: 8.15 µM (inactive)
GI50 [17]: 26.2 µM (inactive)
GI50 [18]: 8.36 µM (inactive)
GI50 [19]: 15.3 µM (inactive)
GI50 [20]: 3.43 µM (inactive)

CC1(C)C(/C=N\O)=[N+]([O-])C(C)(C)N1O
GI50 [1]: > 100 µM (inactive)
GI50 [2]: > 100 µM (inactive)
GI50 [3]: > 100 µM (inactive)
GI50 [4]: > 100 µM (inactive)
GI50 [5]: 31.6 µM (inactive)
GI50 [6]: > 100 µM (inactive)
GI50 [7]: > 100 µM (inactive)
GI50 [8]: > 100 µM (inactive)
GI50 [9]: > 100 µM (inactive)
GI50 [10]: 25.2 µM (inactive)
GI50 [11]: > 100 µM (inactive)
GI50 [12]: > 100 µM (inactive)
GI50 [13]: > 100 µM (inactive)
GI50 [14]: > 100 µM (inactive)
GI50 [15]: > 100 µM (inactive)
GI50 [16]: > 100 µM (inactive)
GI50 [17]: > 100 µM (inactive)
GI50 [18]: > 100 µM (inactive)
GI50 [19]: > 100 µM (inactive)
GI50 [20]: > 100 µM (inactive)

O=C(O)c1ccc(CNCc2ccccc2)cc1
GI50 [1]: > 100 µM (inactive)
GI50 [2]: > 100 µM (inactive)
GI50 [3]: > 100 µM (inactive)
GI50 [4]: > 100 µM (inactive)
GI50 [5]: > 100 µM (inactive)
GI50 [6]: > 100 µM (inactive)
GI50 [7]: > 100 µM (inactive)
GI50 [8]: > 100 µM (inactive)
GI50 [9]: > 100 µM (inactive)
GI50 [10]: > 100 µM (inactive)
GI50 [11]: > 100 µM (inactive)
GI50 [12]: > 100 µM (inactive)
GI50 [13]: > 100 µM (inactive)
GI50 [14]: > 100 µM (inactive)
GI50 [15]: > 100 µM (inactive)
GI50 [17]: > 100 µM (inactive)
GI50 [18]: > 100 µM (inactive)
GI50 [19]: > 100 µM (inactive)
GI50 [20]: > 100 µM (inactive)

Cc1ccc(-n2cc(-c3ccc(Cl)cc3)c(C#N)c2N)cc1
GI50 [1]: 15.3 µM (inactive)
GI50 [2]: 21.2 µM (inactive)
GI50 [3]: 25.2 µM (inactive)
GI50 [4]: 15.2 µM (inactive)
GI50 [5]: 4.1 µM (inactive)
GI50 [6]: 17 µM (inactive)
GI50 [8]: 15.3 µM (inactive)
GI50 [9]: 14.6 µM (inactive)
GI50 [10]: 17.3 µM (inactive)
GI50 [11]: 15.7 µM (inactive)
GI50 [12]: 18.7 µM (inactive)
GI50 [13]: 17.5 µM (inactive)
GI50 [14]: 16.1 µM (inactive)
GI50 [15]: 17.3 µM (inactive)
GI50 [16]: 20.3 µM (inactive)
GI50 [17]: 6.67 µM (inactive)
GI50 [18]: 14.7 µM (inactive)
GI50 [19]: 14.8 µM (inactive)
GI50 [20]: 13.2 µM (inactive)

O=c1[nH]c(=O)n(C2OC(CO)C(O)C2O)c2ccsc12 (centres undefined)
GI50 [1]: > 100 µM (inactive)
GI50 [2]: > 100 µM (inactive)
GI50 [3]: > 100 µM (inactive)
GI50 [4]: > 100 µM (inactive)
GI50 [5]: > 100 µM (inactive)
GI50 [6]: > 100 µM (inactive)
GI50 [7]: > 100 µM (inactive)
GI50 [8]: > 100 µM (inactive)
GI50 [9]: > 100 µM (inactive)
GI50 [10]: > 100 µM (inactive)
GI50 [11]: > 100 µM (inactive)
GI50 [12]: > 100 µM (inactive)
GI50 [13]: > 100 µM (inactive)
GI50 [14]: > 100 µM (inactive)
GI50 [16]: > 100 µM (inactive)
GI50 [17]: > 100 µM (inactive)
GI50 [18]: > 100 µM (inactive)
GI50 [19]: > 100 µM (inactive)
GI50 [20]: > 100 µM (inactive)

C/C(=N\Nc1nc2ccccc2s1)c1cnccn1
GI50 [1]: 2.13 µM (inactive)
GI50 [2]: 0.256 µM (active)
GI50 [3]: 4.34 µM (inactive)
GI50 [4]: 0.146 µM (active)
GI50 [6]: 1.51 µM (inactive)
GI50 [7]: 2.07 µM (inactive)
GI50 [8]: 0.685 µM (active)
GI50 [9]: 1.52 µM (inactive)
GI50 [10]: 6.01 µM (inactive)
GI50 [11]: 1.94 µM (inactive)
GI50 [12]: 1.16 µM (inactive)
GI50 [13]: 2.76 µM (inactive)
GI50 [14]: 2.57 µM (inactive)
GI50 [15]: 3.67 µM (inactive)
GI50 [16]: 2.8 µM (inactive)
GI50 [17]: 0.652 µM (active)
GI50 [19]: 4.13 µM (inactive)
GI50 [20]: 1.06 µM (active)

N#Cc1c(O)n(-c2ccccc2)c(=O)c2c(N)n[nH]c12
GI50 [1]: > 100 µM (inactive)
GI50 [2]: 95.1 µM (inactive)
GI50 [3]: > 100 µM (inactive)
GI50 [4]: > 100 µM (inactive)
GI50 [5]: > 100 µM (inactive)
GI50 [6]: > 100 µM (inactive)
GI50 [7]: 42.4 µM (inactive)
GI50 [8]: > 100 µM (inactive)
GI50 [9]: > 100 µM (inactive)
GI50 [10]: > 100 µM (inactive)
GI50 [11]: > 100 µM (inactive)
GI50 [12]: > 100 µM (inactive)
GI50 [14]: > 100 µM (inactive)
GI50 [15]: > 100 µM (inactive)
GI50 [16]: > 100 µM (inactive)
GI50 [17]: > 100 µM (inactive)
GI50 [18]: > 100 µM (inactive)
GI50 [19]: > 100 µM (inactive)
GI50 [20]: > 100 µM (inactive)
